Reference: PubChem BioAssay (NCI)
Where “and” joins values, the source holds several entries; their conditions need not be identical. Equal entries are not always repeated.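 Dose response: 5 concentrations. Exposure: 48 h. Format: 96-well plates. Endpoint: linear interpolation; highest concentration if not reached. GI50 marks 50% less growth. TGI is the concentration that stops growth completely.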

Experiments:
Assay in all cases: NCI tumour cell line growth inhibition, 48 h
[1] = tested on: DMS 273 small cell lung
[2] = tested on: RXF-631 renal
[3] = tested on: KM20L2 colon
[4] = tested on: LXFL 529 NSCLC
[5] = tested on: XF 498 CNS
[6] = tested on: DMS 114 small cell lung
[7] = tested on: P388 leukemia
[8] = tested on: SN12K1 renal
[9] = tested on: HOP-18 NSCLC
[10] = tested on: P388/ADR leukemia

Compound: Nc1cccc2c1C(=O)c1cccc(N)c1C2=O
- TGI [1]: > 100 µM
- TGI [2]: > 100 µM
- TGI [3]: > 100 µM
- TGI [4]: > 100 µM
- TGI [5]: 69.4 µM

Compound: Cc1ccccc1-n1c(C)nc2c1C(=O)c1ccccc1C2=O
- TGI [1]: > 100 µM
- TGI [6]: 87 µM

Compound: [Cl][Pt+2][Cl].[NH-]C1CCCCC1[NH-] (stereo not given)
- TGI [7]: 6.91 µM and 7.39 µM and 2.14 µM
- GI50 [3]: 8.07 µM and 2.19 µM and 1.36 µM
- TGI [3]: 44.6 µM and > 52.9 µM and 29.6 µM
- TGI [8]: > 100 µM
- GI50 [9]: 25.6 µM and > 100 µM and 28.4 µM
- TGI [9]: > 100 µM
- GI50 [10]: 4.69 µM and 2.22 µM and 0.629 µM
- TGI [10]: 98.9 µM and > 100 µM and > 52.4 µM

Compound: COC(=O)C1CCC(=O)N1C(=O)Cc1ccc(OC)cc1 (stereo not given)
- TGI [1]: > 100 µM
- TGI [3]: > 100 µM
- TGI [4]: > 100 µM
- TGI [5]: > 100 µM
- TGI [6]: > 100 µM

Compound: OCC1OC(n2cnc3cncnc32)C(O)C1O (stereo not given)
- TGI [1]: 2.38 µM
- TGI [7]: 1.59 µM
- TGI [3]: 5.17 µM
- TGI [8]: 3.49 µM
- TGI [9]: 8.15 µM
- TGI [6]: 2.57 µM
- TGI [10]: 1.46 µM

Compound: Cc1ccc(C(C)(C)C[P+](C)(c2ccccc2)c2ccccc2)cc1
- TGI [1]: 23.8 µM
- TGI [7]: 12.3 µM
- TGI [3]: > 88.8 µM
- TGI [8]: > 90.7 µM
- TGI [9]: > 47.8 µM
- TGI [5]: 12.9 µM
- TGI [6]: 35.6 µM
- TGI [10]: > 100 µM
